Source: paper PMC8920097, “Prediction of hERG inhibition of drug discovery compounds using biomimetic HPLC measurements” (ADMET & DMPK, 2021)
Where two headings read alike, the source gives them in different places.

Legend:
[1] = Charge character of the drugs at pH 7.4; assay type: physicochemical
[2] = Phospholipid binding at pH 7.4 on IAM PC.DD2 HPLC column; assay type: physicochemical; design: key to CHI IAM: approximates acetonitrile concentration (%) in mobile phase at elution
Method: The phospholipid-binding was measured using an IAM PC.DD2 column with dimensions of 100 x 4.6 mm (Regis Technologies Inc., Morton Grove, IL, USA). The gradient retention times were measured using a 50 mM ammonium acetate mobile phase with the pH adjusted to 7.4. The mobile phase flow rate was 1.5 mL/min. […] The cycle time was 6 min, plus an additional 1 min equilibration time was applied while the injector prepared for the next injection. The gradient retention times were calibrated with the acetophenone homologues for which the CHI IAM values have been established using isocratic measurements. […] The CHI Index on the IAM column (CHI IAM) approximates the acetonitrile concentration in the mobile phase when the compound elutes. […] The CHI IAM values have been converted to log k IAM values derived from the CHI IAM values using equation 1. It represents the equivalent value derived from several isocratic measurements with extrapolated log retention factors to 100 % aqueous mobile phase. The log k IAM values can be converted to log K (IAM) values and show linear relationships with the octanol/water partition coefficients.

[3] = test system: hERG channel; conditions: cited from earlier work
[4] = CHI lipophilicity by gradient reversed-phase HPLC (Gemini NX-C-18); conditions: for chromatographic logD: Gemini NX-C-18 reversed-phase HPLC column, pH 7.4; for chromatographic logP: reversed-phase HPLC, Gemini NX-C-18 column (50 x 3 mm, 5 µm)
Method: The Chromatographic Hydrophobicity Index (CHI) was measured using the compounds’ calibrated gradient retention times obtained from an Agilent 1100 HPLC fitted with a Gemini NX-C-18 column (Phenomenex Ltd Macclesfield, UK) with dimensions of 50 x 3 mm and 5 μm particle size. […] The mobile phase B was 100 % acetonitrile. […] An acetonitrile linear gradient was used from 0 to 100 %. […] The retention time values for a standard set of compounds listed in Table 1 were used to convert the drug retention times to CHI values.

[5] = test system: alpha-1-acid-glycoprotein (AGP); assay: Protein binding on Chiralpak AGP HPLC column; conditions: pH 7.4, Chiralpak AGP
Method: The measurement of the biomimetic properties of the available drugs was conducted in our laboratories. Generic gradient HPLC methods were used to determine the chromatographic hydrophobicity Index (CHI) using mobile phases at three different pH values. The protein binding of the compounds was measured using immobilised human serum albumin (HSA), and alpha-1-acid-glycoprotein (AGP) stationary phases. The phospholipid-binding was measured using the immobilised artificial membrane (IAM) stationary phase. The aim was to establish relationships between the cardiotoxicity potential and the biomimetic binding properties of the drugs and to evaluate their predictive performance.

[6] = pH 7.4, derived from CHI IAM by equation 1
[7] = literature values, mean where several reported, molar

| Charge [1] | log k IAM [2, 6] | chromatographic logD [4] | chromatographic logP [4] | log k AGP [5] | CHI IAM ([2]; pH 7.4) | Compound | hERG pIC50 [3, 7] | hERG pIC50 [3] | log k IAM ([2]; pH 7.4) |
| --- | --- | --- | --- | --- | --- | --- | --- | --- | --- |
| Zwitterionic | 1.59 | – | – | – | – | O=C(O)c1cn(C2CC2)c2cc(N3CCNCC3)c(F)cc2c1=O [Ciprofloxacin] | – | – | – |
| – | – | – | – | – | – | CNCCC(Oc1ccc(C(F)(F)F)cc1)c1ccccc1 (stereo not drawn) [Fluoxetine] | 5.73 | – | – |
| Weak Base | 1.93 | 2.51 | 2.59 | 0.46 | – | O=c1n(CCCN2CCN(c3cccc(Cl)c3)CC2)nc2ccccn12 [Trazodone] | 5.30 | – | – |
| Basic | 2.20 | 1.31 | 2.6 | – | 38.79 | CC[C@H]1OC(=O)[C@H](C)[C@@H](O[C@H]2C[C@@](C)(OC)[C@@H](O)[C@H](C)O2)[C@H](C)[C@@H](O[C@@H]2O[C@H](C)C[C@H](N(C)C)[C@H]2O)[C@](C)(O)C[C@@H](C)C(=O)[C@H](C)[C@@H](O)[C@]1(C)O [Erythromycin] | – | – | – |
| Neutral | – | 3.15 | 3.19 | 0.69 | – | CCOC(=O)C1=C(C)NC(C)=C(C(=O)OC)C1c1cccc([N+](=O)[O-])c1 (stereo not drawn) [Nitrendipine] | 5.10 | – | – |
| – | 2.16 | – | – | – | 37.86 | CC(=O)N1CCN(c2ccc(OCC3COC(Cn4ccnc4)(c4ccc(Cl)cc4Cl)O3)cc2)CC1 (stereo not drawn) [Ketoconazole] | – | – | – |
| Basic | 1.29 | -0.59 | 0.95 | – | – | CCN(CC)CCNC(=O)c1ccc(N)cc1 [Procainamide] | – | – | – |
| Basic | 2.06 | – | – | – | – | CN(C)CCOC(c1ccccc1)c1ccccc1 [Diphenhydramine] | – | – | – |
| Acidic | 1.93 | 2.07 | 3.17 | – | – | COc1ccc(Cl)cc1C(=O)NCCc1ccc(S(=O)(=O)NC(=O)NC2CCCCC2)cc1 [Glibenclamide] | – | – | – |
| Neutral | 2.2 | 3.25 | 3.41 | 0.64 | 38.64 | CC(C)c1nc(CN(C)C(=O)N[C@H](C(=O)N[C@@H](Cc2ccccc2)C[C@H](O)[C@H](Cc2ccccc2)NC(=O)OCc2cncs2)C(C)C)cs1 [Ritonavir] | – | – | – |
| Basic | 1.14 | – | – | – | – | CC(C)NCC(O)COc1ccc(CC(N)=O)cc1 (stereo not drawn) [Atenolol] | – | – | – |
| Basic | 1.43 | -0.39 | -0.35 | -1.41 | – | CC(C)NCC(O)c1ccc(NS(C)(=O)=O)cc1 (stereo not drawn) [Sotalol] | 3.57 | – | – |
| Basic | 3.19 | 3.18 | 3.18 | 1.18 | – | CN1CCC[C@@H]1CCO[C@](C)(c1ccccc1)c1ccc(Cl)cc1 [Clemastine] | – | – | – |
| – | 2.46 | 4.09 | – | – | 44.38 | CC[C@H](C)C(=O)O[C@H]1C[C@@H](C)C=C2C=C[C@H](C)[C@H](CC[C@@H]3C[C@@H](O)CC(=O)O3)[C@H]21 [Lovastatin] | – | – | – |
| – | – | 2.55 | 2.69 | – | – | OCCOCCN1CCN(C2=Nc3ccccc3Sc3ccccc32)CC1 [Quetiapine] | – | – | – |
| – | – | – | – | – | – | Nicotine | – | 3.61 | – |

| Charge [1] | log k IAM [2, 6] | chromatographic logD [4] | chromatographic logP [4] | log k AGP [5] | CHI IAM ([2]; pH 7.4) | Compound | hERG pIC50 [3, 7] | hERG pIC50 [3] | log k IAM ([2]; pH 7.4) |
| --- | --- | --- | --- | --- | --- | --- | --- | --- | --- |
| Basic | 3.03 | 2.03 | 4.79 | 0.99 | – | CNCCCC12CCC(c3ccccc31)c1ccccc12 [Maprotiline] | 5.17 | – | – |
| – | 2.29 | – | – | – | – | O=C(O)COCCN1CCN(C(c2ccccc2)c2ccc(Cl)cc2)CC1 (stereo not drawn) [Cetirizine] | – | – | – |
| Basic | 3.12 | 4.96 | 6.54 | 1.34 | – | CC(C)(C)c1ccc(C(=O)CCCN2CCC(OC(c3ccccc3)c3ccccc3)CC2)cc1 [Ebastine] | – | – | – |
| – | 1.01 | – | – | – | – | Cc1cc(NS(=O)(=O)c2ccc(N)cc2)no1 [Sulfamethoxazole] | – | – | – |
| Basic | 2.35 | 2.76 | 3.12 | – | 41.95 | COc1ccc([C@@H]2Sc3ccccc3N(CCN(C)C)C(=O)[C@@H]2OC(C)=O)cc1 [Diltiazem] | – | – | – |
| Weak Base | 1.95 | 1.46 | 1.46 | – | – | O=C(O[C@@H]1C[C@@H]2C[C@H]3C[C@H](C1)N2CC3=O)c1c[nH]c2ccccc12 [Dolasetron] | – | – | – |
| Weak Base | 2.46 | – | – | – | – | CCOC(=O)N1CCC(=C2c3ccc(Cl)cc3CCc3cccnc32)CC1 [Loratadine] | – | – | – |
| – | 2.16 | -0.14 | -0.14 | – | 37.89 | CCn1cc(C(=O)O)c(=O)c2cc(F)c(N3CCNC(C)C3)c(F)c21 (stereo not drawn) [Lomefloxacin] | – | – | – |
| – | 2.24 | 1.17 | 2.66 | – | – | CN1CCc2cccc3c2[C@H]1Cc1ccc(O)c(O)c1-3 [Apomorphine] | – | – | – |
| Weak Base | 2.03 | 2.59 | 2.62 | – | 35.00 | CCCc1nn(C)c2c(=O)[nH]c(-c3cc(S(=O)(=O)N4CCN(C)CC4)ccc3OCC)nc12 [Sildenafil] | – | – | – |
| – | – | – | – | – | – | Prazosin | 5.22 | – | – |
| – | – | – | – | – | – | CCN(CC)CCCC(C)Nc1ccnc2cc(Cl)ccc12 (stereo not drawn) [Chloroquine] | 5.03 | – | – |
| Basic | – | – | – | 0.94 | – | CNCCCN1c2ccccc2CCc2ccccc21 [Desipramine] | 5.36 | – | – |
| Basic | 2.96 | 2.65 | 5.21 | – | – | CN(C)CCC=C1c2ccccc2CCc2ccccc21 [Amitriptyline] | – | – | – |
| – | 3.65 | 3.02 | 5.46 | – | – | CSc1ccc2c(c1)N(CCC1CCCCN1C)c1ccccc1S2 (stereo not drawn) [Thioridazine] | – | – | – |

| Compound | Charge [1] | log k IAM [2, 6] | chromatographic logD [4] | chromatographic logP [4] | log k AGP [5] | CHI IAM ([2]; pH 7.4) | hERG pIC50 [3, 7] | hERG pIC50 [3] | log k IAM ([2]; pH 7.4) |
| --- | --- | --- | --- | --- | --- | --- | --- | --- | --- |
| Cc1nc2n(c(=O)c1CCN1CCC(c3noc4cc(F)ccc34)CC1)CCCC2 [Risperidone] | Weak Base | 2.09 | – | – | – | – | – | – | – |
| CC1COc2c(N3CCN(C)CC3)c(F)cc3c(=O)c(C(=O)O)cn1c23 (stereo not drawn) [Ofloxacin] | Zwitterionic | 1.62 | 0.53 | – | -0.81 | – | – | 2.93 | – |
| CCC1=C(C)CN(C(=O)NCCc2ccc(S(=O)(=O)NC(=O)N[C@H]3CC[C@H](C)CC3)cc2)C1=O [Glimepiride] | – | 1.83 | 2.42 | 3.25 | 0.40 | 30.76 | – | 4.13 | – |
| Cc1cc2c(s1)Nc1ccccc1N=C2N1CCN(C)CC1 [Olanzapine] | Weak Base | – | – | – | – | – | – | – | 2.71 |
| C=C[C@H]1C[N@@]2CC[C@H]1C[C@@H]2[C@@H](O)c1ccnc2ccc(OC)cc12 [Quinidine] | Basic | 2.71 | – | – | 0.68 | – | – | 5.51 | – |
| CN(C)CCCC1(c2ccc(F)cc2)OCc2cc(C#N)ccc21 (stereo not drawn) [Citalopram] | Basic | – | – | – | – | – | – | 5.27 | – |
| Clc1ccc(COC(Cn2ccnc2)c2ccc(Cl)cc2Cl)c(Cl)c1 (stereo not drawn) [Miconazole] | Weak Base | 2.89 | 4.64 | 4.7 | 1.26 | 53.72 | – | 5.68 | – |
| COCC(=O)O[C@]1(CCN(C)CCCc2nc3ccccc3[nH]2)CCc2cc(F)ccc2[C@@H]1C(C)C [Mibefradil] | Basic | 2.96 | 2.96 | 3.99 | 1.11 | – | – | 5.88 | – |
| CN(C)CCCN1c2ccccc2CCc2ccccc21 [Imipramine] | – | – | – | – | 0.96 | – | – | – | – |
| CCN(CC)CC(=O)Nc1c(C)cccc1C [Lidocaine] | Weak Base | 1.91 | – | – | – | – | – | – | – |
| Cc1ccc(O)c([C@H](CCN(C(C)C)C(C)C)c2ccccc2)c1 [Tolterodine] | – | 2.83 | 2 | 4.95 | – | – | – | – | – |
